Series [1] concerns THP-1 cells. The series can be described thus: Total RNA levels (ng/μL) as a marker for cell viability. The class given is cell-based, human. The procedure: (§1) Control and treated cells are transferred to separate sterile 1.5-mL tubes and centrifuged for 5 minutes at 300 g. The cell pellets are resuspended in appropriate buffer to lyse the cells. RNAase-free 70% ethanol is then added followed by mixing by pipetting. The lysates are transferred to an RNeasy™ Mini spin column and centrifuged 30 seconds at 13000 RPM. After several washes with appropriate buffers and centrifugation steps, the eluates are collected in sterile 1.5-mL tubes on ice, and the RNA quantity in each tube is then quantified with a spectrophotometer. For DNase treatment, 2 μg of RNA is diluted in 15 μL of RNase-free water. 1.75 μL of 10× DNase buffer and 0.75 μL of DNase is then added, followed by incubation at 37° C. for 15 minutes. For reverse transcriptase treatment, 0.88 μL of EDTA ([…]) is added, followed by incubation at 75° C. for 5 minutes. In a PCR tube, 0.5 μg of DNase-treated RNA is mixed with 4 μL of iScript™ Reverse transcription Supermix (5×) and […] of nuclease-free water. The mix is incubated in a PCR machine with the following program: 5 min at 25° C., 30 min at 42° C. and 5 min at 85° C. Newly synthesized cDNA is transferred in sterile 1.5-mL tubes and diluted in 2 μL of nuclease-free water. 18 μL per well of a qPCR machine (CFX-96™) mix is then added in a PCR plate for analysis.
Briefly, THP-1 cells were plated at 30 000 cells/well one day before transduction. HOXB4-WT recombinant protein (0.3, 0.9, or 1.5 μM; Example 14.1) was co-incubated with different concentrations of His-CM18-PTD4 ([…], 0.8 or 1 μM) and then exposed to THP-1 cells for 2.5 hours in the presence of serum. The cells were subjected to real time-PCR analysis as described in Example 14.2 to measure the mRNA levels of a target gene as a marker for HOXB4 activity, which was then normalized to the target gene mRNA levels detected in the negative control cells (no treatment), to obtain a “Fold over control” value. Total RNA levels (ng/μL) were also measured as a marker for cell viability.

The test system of series [2] is HeLa cells. The series can be described thus: GFP-NLS transduction efficiency, flow cytometry (Pos cells %, relative fluorescence intensity FL1-A). The class given is cell-based, Human. Particulars: Protocol B, 1 minute; for Mean % cells with GFP signal (±St. Dev.; n = 3), FIG. 29I: shuttle 20 μM, GFP-NLS 5 μM. In general terms: Flow cytometry measures light scatter and fluorescence of single cells or particles in a stream.

A short description of series [3]: Cell toxicity / % cell viability by flow cytometry (cells in total events v. untreated). It is filed as cell-based, Human. Particulars: human, HeLa cells, HeLa; for viability at 1 min, 20 µM / viability at 10 s, 50 µM / viability at 1 min, 10 µM / viability at 2 min, 10 µM / viability at 5 min, 10 µM: Protocol B; for viability at 1 min, 20 µM: 1 minute; for viability at 10 s, 50 µM: FIG. 29A, shuttle 50 μM, 10 seconds; for viability at 1 min, 10 µM / viability at 2 min, 10 µM / viability at 5 min, 10 µM: shuttle 10 μM; for viability at 1 min, 10 µM: incubation 1 min; for viability at 2 min, 10 µM: incubation 2 min; for viability at 5 min, 10 µM: incubation 5 min.

Series [4] concerns HeLa cells. The description is as above. It is filed as cell-based, Human. Conditions: for effect of the variation of the shuttle on cell viability (in words): GFP-NLS 5 μM with 20 μM shuttle variant.
Series [5] deals with THP-1 cells. The series can be described thus: HOXB4-WT transduction, real-time PCR of target gene mRNA (Fold over control). The class given is cell-based, human. The procedure: as §1
Briefly, THP-1 cells were plated at 30 000 cells/well one day before transduction. […] The cells were subjected to real time-PCR analysis as described in Example 14.2 to measure the mRNA levels of a target gene as a marker for HOXB4 activity, which was then normalized to the target gene mRNA levels detected in the negative control cells (no treatment), to obtain a “Fold over control” value. Total RNA levels (ng/μL) were also measured as a marker for cell viability.
Briefly, THP-1 cells were plated at 30 000 cells/well one day before the first time course experiment. […] The cells were subjected to real time-PCR analysis as described in Example 14.2 to measure mRNA levels of a target gene as a marker for HOXB4 activity, which was then normalized to the target gene mRNA levels detected in the negative control cells (no treatment), to obtain a “Fold over control” value. Total RNA levels (ng/μL) were also measured as a marker for cell viability.
Briefly, THP-1 cells were plated at 30 000 cells/well one day before the first time course experiment. […] The cells were subjected to real time-PCR analysis as described in Example 14.2 to measure mRNA levels of a target gene as a marker for HOXB4 activity, which was then normalized to target gene mRNA levels detected in the negative control cells (no treatment), to obtain a “Fold over control” value. Total RNA levels (ng/μL) were also measured as a marker for cell viability. […]
Background: Real-time PCR tracks product formation cycle by cycle.

Series [6] can be described thus: Cell toxicity / % cell viability by flow cytometry (cells in total events v. untreated). It is filed as cell-based, human. Particulars: human, THP-1 cells, THP-1, Protocol C, shuttle 1 μM, GFP-NLS 5 μM, read-out: Cell viability (%) (±St. Dev.; n = 3).
Text: The fluorescence of GFP was quantified using flow cytometry (Accuri C6, Becton, Dickinson and Company (BD)). Untreated cells were used to establish a baseline in order to quantify the increased fluorescence due to the internalization of the fluorescent protein in treated cells. The percentage of cells with a fluorescence signal above the maximum fluorescence of untreated cells, “mean %” or “Pos cells (%)”, is used to identify positive fluorescent cells. “Relative fluorescence intensity (FL1-A)” corresponds to the mean of all fluorescence intensities from each cell with a fluorescent signal after fluorescent protein delivery with the shuttle agent. Also, the events scanned by flow cytometry corresponding to cells (size and granularity) were analyzed. The cellular toxicity (% cell viability) was monitored comparing the percentage of cells in the total events scanned of treated cells comparatively to untreated cells.
Where [7] appears, read: Cell viability (%) (±St. Dev.; n = 3), FIG. 29I, shuttle 20 μM, GFP-NLS 5 μM, read-out: Cell viability (%) (±St. Dev.; n = 3), FIG. 29I.
The mark [8] stands for this setting: HeLa, Protocol B, shuttle 50 μM, GFP-NLS 5 μM, 10 seconds.
The mark [9] stands for this setting: Cell viability (%) (±St. Dev.; n = 3), GFP-NLS 5 μM, read-out: Cell viability (%) (±St. Dev.; n = 3).
Setting [10] is: GFP-NLS 5 μM, read-out: Cell viability (%) (±St. Dev.; n = 3), FIG. 29G.
[11] abbreviates: GFP-NLS 5 μM, read-out: Cell viability (%) (±St. Dev.; n = 3).
The mark [12] stands for this setting: GFP-NLS 5 μM, read-out: Cell viability (%) (±St. Dev.; n = 3), FIG. 29B.

The viability is a per cent measure of how many cells are alive, often set against a control.

Read-outs that look alike come from different tables or passages of the source. Where no end group is shown, it is not given here.

For “HHHHHHKWKLFKKIGAVLKVLTTGYARAAARQARA [His-CM18-PTD4 alone]”, the “Total RNA in ng/μL (mean ± St. Dev)” value in series [1] (Table 14.1, shuttle 1 μM, HOXB4-WT 0 μM, 2.5 hours with serum) amounted to 252 ± 10.7 ng/µL; in series [1] (Table 14.2, shuttle 0.8 μM, HOXB4-WT 0 μM, exposure time 2.5 h, serum), 184 ± 6.0 ng/µL; in series [1] (Table 14.3, shuttle 0 μM, HOXB4-WT 0.3 μM, exposure time 2.5 h, serum), 260 ± 7.1 ng/µL; in series [1] (Table 14.4, shuttle 0 μM, HOXB4-WT 1.5 μM, exposure time 2.5 h, serum) it was 303.9 ± 7.6 ng/µL.
As to “HHHHHHKWKLFKKIGAVLKVLTTGYARAAARQARACCCCCC (cysteines drawn unpaired) [His-CM18-PTD4-6Cys]”, the “Mean % cells with GFP signal (±St. Dev.; n = 3), FIG. 29I” value (from here on “Mean % cells with GFP signal”) in series [2] is on record as 41.3 ± 4.28%. Moreover, the viability at 1 min, 20 µM in series [3] (setting [7]) amounted to 62 ± 5.76%.
As for “HHHHHHKWKLFKKIGAVLKVLTTGYGRKKRRQRRR [His-CM18-TAT]”, the “Cell viability (%) (±St. Dev.; n = 3), FIG. 29E” value in series [4] (setting [8]) worked out at 35.2 ± 5.7%. Also, the viability at 1 h, 1 µM in series [3] (Cell viability (%) (±St. Dev.; n = 3), FIG. 21B, GFP-NLS 5 μM, shuttle 1 μM, 1 hour, read-out: Cell viability (%) (±St. Dev.; n = 3), FIG. 21B) was 95 ± 3.55%. In series [3] (Cell viability (%) (±St. Dev.; n = 3), FIG. 21B, GFP-NLS 5 μM, shuttle 3 μM, 1 hour, read-out: Cell viability (%) (±St. Dev.; n = 3), FIG. 21B), the viability at 1 h, 3 µM was 91 ± 5.18%. In addition, in series [3] (Cell viability (%) (±St. Dev.; n = 3), FIG. 21B, GFP-NLS 5 μM, shuttle 5 μM, 1 hour, read-out: Cell viability (%) (±St. Dev.; n = 3), FIG. 21B), the viability at 1 h, 5 µM worked out at 86 ± 4.59%. Also, the viability at 10 s, 50 µM in series [3] (setting [9]) was 35.2 ± 5.7%.
As to HOXB4-WT alone, the “Fold over control (mean ± St. Dev)” value in series [5] (Table 14.1, shuttle 0 μM, HOXB4-WT 1.5 μM, 2.5 hours with serum) is 4.3 ± 0.1; in series [5] (Table 14.2, shuttle 0 μM, HOXB4-WT 1.5 μM, exposure time 2.5 h, serum), 3.4 ± 0.3; in series [5] (Table 14.3, shuttle 0.8 μM, HOXB4-WT 0 μM, exposure time 2.5 h, serum) it was 1 ± 0.14; in series [5] (Table 14.4, shuttle 0.8 μM, HOXB4-WT 0 μM, exposure time 2.5 h, serum) it was 1 ± 0.11.
With “KWKLFKKIGAVLKVLTTGGGSGGGSGGGSGYARAAARQARA [CM18-L3-PTD4]”, the “effect of the variation of the shuttle on transduction efficiency (in words)” value in series [2] (GFP-NLS 5 μM with 20 μM shuttle variant) is given as “did not result in a dramatic loss of transduction efficiency”. Besides, the “Mean % cells with GFP signal” value in series [2] is listed as 39.0 ± 2.7%. Also, the “effect of the variation of the shuttle on cell viability (in words)” value in series [4] (HeLa, 1 minute, Protocol B) is recorded as “increased cell viability”.
Consider “KWKLFKKIGAVLKVLTTGGGSGGGSYARAAARQARA [CM18-L2-PTD4]”, for which the “effect of the variation of the shuttle on cell viability (in words)” value in series [4] (HeLa, 1 minute, Protocol B) is on record as “increased cell viability”. Besides, the viability at 1 min, 20 µM in series [3] (setting [7]) turned out to be 64 ± 1.3%.
For “KWKLFKKIGAVLKVLTTGGGSYARAAARQARA [CM18-L1-PTD4]” the same measures were “increased cell viability” and 50.1 ± 3.8%.
As for “KWKLFKKIGAVLKVLTTGYARAAARQARA [CM18-PTD4]”, in series [4] (HeLa, Protocol B, shuttle 20 μM, GFP-NLS 5 μM, 1 minute), the “Cell viability (%) (±St. Dev.; n = 3), FIG. 29I” value is given as 33.9 ± 3.7%. Moreover, the viability at 1 min, 20 µM in series [3] (cell viability, GFP-NLS 5 μM with 20 μM shuttle, Table 10.3e, read-out: cell viability) turned out to be 33.9%.
For the substance “MHHHHHHKWKLFKKIGAVLKVLTTGYARAAARQARAC [Met-His-CM18-PTD4-Cys]”, in series [2], the “Mean % cells with GFP signal” value is on record as 45.6 ± 3.88%. In series [3] (setting [7]), the viability at 1 min, 20 µM was determined as 54.9 ± 3.45%.
With “YARAAARQARAWEAKLAKALAKALAKHLAKALAKALKACEA [PTD4-KALA]”, in series [4], the “Cell viability (%) (±St. Dev.; n = 3), FIG. 29F” value (shortened to “Cell viability (%) … FIG. 29F”) was found to be 91.4 ± 3.67%. In series [3] (setting [10]), the viability at 1 min, 10 µM was determined as 96.2 ± 3%; the viability at 2 min, 10 µM was found to be 75.3 ± 3.8%; the viability at 5 min, 10 µM was found to be 82.4 ± 4.7%. Besides, in series [3] (setting [11]), the viability at 10 s, 50 µM was determined as 91.4 ± 3.67%.
Turning to “YGRKKRRQRRRCKWKLFKKIGAVLKVLTTG [TAT-CM18]”, in series [4] (setting [8]), the “Cell viability (%) … FIG. 29F” value worked out at 23.5 ± 1.1%. For the same substance, in series [3] (setting [9]), the viability at 10 s, 50 µM was found to be 23.5 ± 1.1%.
As for “YGRKKRRQRRRCWEAKLAKALAKALAKHLAKALAKALKACEA (cysteines drawn unpaired) [TAT-KALA]”, the viability at 15 s, 1 µM in series [6] (incubation time 15 sec) was 84.6 ± 2.7%. In series [6] (incubation time 30 sec), the viability at 0.5 min, 1 µM came out at 70.3 ± 3.2%. In series [6] (incubation time 60 sec), the viability at 1 min, 1 µM turned out to be 82.7 ± 1.4%. Moreover, the viability at 2 min, 1 µM in series [6] (incubation time 120 sec) was 46.3 ± 4.9%. In series [4] (setting [8]), the “Cell viability (%) … FIG. 29F” value was determined as 95.6 ± 4.3%. In addition, in series [3] (setting [12]), the viability at 1 min, 10 µM was 93.5 ± 2.7%; the viability at 2 min, 10 µM worked out at 92.1 ± 3.1%; the viability at 5 min, 10 µM was 86 ± 4.4%. The viability at 10 s, 50 µM in series [3] (setting [11]) came to 95.6 ± 4.3%.

The values are drawn from patent publication US12060387B2, “Polypeptide-based shuttle agents for improving the transduction efficiency of polypeptide cargos to the cytosol of target eukaryotic cells, uses thereof, methods and kits relating to same” (priority 2015, dated 2024).
